Experimental data from the Kinase Knowledgebase extract (Sharma et al. 2016).
pIC50: −log10 of the molar value.

Target: EGFR (human) (UniProt P00533)
Details: a431

Chain of EGFR (human) (P00533 whole entry, looked up): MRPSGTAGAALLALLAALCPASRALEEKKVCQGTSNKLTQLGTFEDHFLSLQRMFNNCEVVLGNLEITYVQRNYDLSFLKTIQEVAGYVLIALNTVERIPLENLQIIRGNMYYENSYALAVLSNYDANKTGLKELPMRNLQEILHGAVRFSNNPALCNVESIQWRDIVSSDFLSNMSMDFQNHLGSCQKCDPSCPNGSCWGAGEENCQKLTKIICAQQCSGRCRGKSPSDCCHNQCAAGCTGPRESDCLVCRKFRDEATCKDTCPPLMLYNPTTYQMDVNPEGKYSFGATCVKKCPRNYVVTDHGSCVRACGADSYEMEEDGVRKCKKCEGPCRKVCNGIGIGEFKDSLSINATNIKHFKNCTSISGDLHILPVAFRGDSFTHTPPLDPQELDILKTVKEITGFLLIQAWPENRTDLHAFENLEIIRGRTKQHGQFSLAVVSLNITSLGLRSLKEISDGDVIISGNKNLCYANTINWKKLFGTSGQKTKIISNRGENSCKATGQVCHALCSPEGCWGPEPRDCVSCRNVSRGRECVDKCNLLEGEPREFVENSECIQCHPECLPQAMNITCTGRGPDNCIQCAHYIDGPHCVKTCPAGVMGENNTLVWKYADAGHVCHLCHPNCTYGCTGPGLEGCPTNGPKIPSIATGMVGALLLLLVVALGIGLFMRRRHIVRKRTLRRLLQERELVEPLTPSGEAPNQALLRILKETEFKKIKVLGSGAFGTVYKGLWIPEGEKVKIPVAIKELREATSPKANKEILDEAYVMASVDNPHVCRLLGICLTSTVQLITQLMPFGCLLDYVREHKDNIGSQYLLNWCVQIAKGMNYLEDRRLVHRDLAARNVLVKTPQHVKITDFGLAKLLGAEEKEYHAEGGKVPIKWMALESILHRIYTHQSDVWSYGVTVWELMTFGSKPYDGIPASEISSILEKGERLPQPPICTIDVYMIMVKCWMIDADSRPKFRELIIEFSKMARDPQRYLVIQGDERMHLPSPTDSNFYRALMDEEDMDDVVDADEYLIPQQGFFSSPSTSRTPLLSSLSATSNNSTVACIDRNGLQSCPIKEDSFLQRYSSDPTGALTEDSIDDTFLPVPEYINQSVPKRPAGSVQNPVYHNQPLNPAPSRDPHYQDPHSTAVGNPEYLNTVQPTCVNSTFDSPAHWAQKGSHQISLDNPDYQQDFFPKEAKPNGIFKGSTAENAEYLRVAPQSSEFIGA

`Cc1cccc(Nc2ncnc3cc4c(cc23)OCCO4)n1` was tested. Which pIC50 did it give?
Its pIC50 is < 5.00.

How did the pIC50 turn out when `Cc1cccc(Nc2ncnc3cc4c(cc23)n(C)c(=O)n4C)c1` was run?
The pIC50 was < 5.00.

How did the pIC50 turn out when `Cc1cccc(Nc2ncnc3c2ccc2ccccc23)c1` was run?
Its pIC50 is < 5.00.

How did the pIC50 turn out when `Cn1c(=O)n(C)c2cc3c(Nc4cccc(Br)c4)ncnc3cc21` was run?
Its pIC50 is < 5.00.

With `Cc1ccnc(Nc2ncnc3cc4c(cc23)OCO4)c1` as the molecule, how does the pIC50 read?
The pIC50 was < 5.00.

`Brc1cccc(Nc2ncnc3c2ccc2ccccc23)c1` was tested. Which pIC50 did it give?
Its pIC50 is < 5.00.

With `Cn1c(=O)n(C)c2cc3c(Nc4cccc(C(F)(F)F)c4)ncnc3cc21` as the molecule, how does the pIC50 read?
Its pIC50 is < 5.00.

With `Cc1cccc(Nc2ncnc3cc4c(cc23)OCO4)n1` as the molecule, how does the pIC50 read?
Its pIC50 is < 5.00.

`CS(=O)(=O)Nc1cccc(Nc2ncnc3cc4c(cc23)OCCO4)c1` was tested. Which pIC50 did it give?
The pIC50 was < 5.00.

How did the pIC50 turn out when `FC(F)(F)c1cccc(Nc2ncnc3c2ccc2ccccc23)c1` was run?
Its pIC50 is < 5.00.

How did the pIC50 turn out when `CS(=O)(=O)Nc1cccc(Nc2ncnc3cc4c(cc23)OCO4)c1` was run?
Its pIC50 is < 5.00.
